Measurements as given in publication PMC10485887, “PET Evaluation of the Novel F-18 Labeled Reversible Radioligand [^18F]GEH200449 for Detection of Monoamine Oxidase-B in the Non-Human Primate Brain” (ACS Chemical Neuroscience, 2023).
Where two headings read alike, the source gives them in different places.

System: MAO-B
Format: in vivo, Macaca fascicularis
Conditions: baseline
Method: At start of PET data acquisition, a sterile physiological phosphate buffer solution (pH = 7.4) of [^18F]GEH200449 (injected radioactivity, 107–167 MBq) was injected as a bolus into a sural vein. Emission data were acquired in list mode for 123 min. Arterial blood was sampled as previously described[28] using an automated blood sampling system (ABSS) during the first 3 min of each PET measurement. Subsequently, arterial blood samples (0.7–2.5 mL) were manually drawn at 7, 15, 30, 60, 90, and 120 min after injection of [^18F]GEH200449. After centrifugation, 0.15–1.0 mL of plasma was pipetted and plasma radioactivity was measured in a well counter. In addition, samples were taken directly from the ABSS at 0.5, 1, 1.5, 2, 2.5, and 3 min for cross-calibration with the well counter and for the determination of the plasma-to-blood ratio.
Dynamic images were reconstructed as previously described.[30],[31] Regions of interest (ROIs) for the whole brain and selected regions (caudate nucleus, putamen, thalamus, occipital cortex, prefrontal cortex, and cerebellum) were manually delineated on T1-weighted magnetic resonance images (MRIs) acquired as previously described.[21],[27] PET images were coregistered to the MRIs, and time-activity curves were generated by pooling ROIs for each paired anatomical region and applying the pooled ROIs to the coregistered PET images. Delineation of ROIs and image coregistrations were performed using the software PMOD v. 3.6 (PMOD Technologies, Zurich, Switzerland).
Time curves for regional [^18F]GEH200449 binding at baseline were analyzed by kinetic modeling using 1-TC and 2-TC models,[32] and VT as outcome measures. Akaike information criterion[33] and F statistics were applied to select the preferred model. Regional estimates of VT for [^18F]GEH200449 were also obtained using the Logan linear graphical method[34] with t* fixed at 40 min. The analyses were performed using the kinetic modeling tool in PMOD v. 4.3. Occupancy at [^18F]GEH200449 binding sites was estimated based on regional VT values obtained by the Logan method at baseline and after drug administration according to a graphical procedure described in the literature.[22]

## O=c1ccoc2ccc(OCc3ccc([18F])nc3)cc12 [[^18F]GEH200449]
NHP #1, CAU
  2-TC parameter estimate K1: 0.70 mL min-1 cm-3
  2-TC parameter estimate VT: 14.6 mL cm-3
  2-TC parameter estimate k2: 0.09 min⁻¹
  2-TC parameter estimate k3: 0.034 min⁻¹
  2-TC parameter estimate k4: 0.037 min⁻¹
NHP #1, CER
  2-TC parameter estimate K1: 0.47 mL min-1 cm-3
  2-TC parameter estimate VT: 11.1 mL cm-3
  2-TC parameter estimate k2: 0.07 min⁻¹
  2-TC parameter estimate k3: 0.021 min⁻¹
  2-TC parameter estimate k4: 0.038 min⁻¹
NHP #1, OC
  2-TC parameter estimate K1: 0.49 mL min-1 cm-3
  2-TC parameter estimate VT: 10.8 mL cm-3
  2-TC parameter estimate k2: 0.07 min⁻¹
  2-TC parameter estimate k3: 0.016 min⁻¹
  2-TC parameter estimate k4: 0.024 min⁻¹
NHP #1, PFC
  2-TC parameter estimate K1: 0.57 mL min-1 cm-3
  2-TC parameter estimate VT: 11.0 mL cm-3
  2-TC parameter estimate k2: 0.09 min⁻¹
  2-TC parameter estimate k3: 0.028 min⁻¹
  2-TC parameter estimate k4: 0.037 min⁻¹
NHP #1, PUT
  2-TC parameter estimate K1: 0.71 mL min-1 cm-3
  2-TC parameter estimate VT: 14.1 mL cm-3
  2-TC parameter estimate k2: 0.09 min⁻¹
  2-TC parameter estimate k3: 0.025 min⁻¹
  2-TC parameter estimate k4: 0.029 min⁻¹
NHP #1, THA
  2-TC parameter estimate K1: 0.59 mL min-1 cm-3
  2-TC parameter estimate VT: 15.0 mL cm-3
  2-TC parameter estimate k2: 0.06 min⁻¹
  2-TC parameter estimate k3: 0.008 min⁻¹
  2-TC parameter estimate k4: 0.016 min⁻¹
NHP #1, WB
  2-TC parameter estimate K1: 0.51 mL min-1 cm-3
  2-TC parameter estimate VT: 10.9 mL cm-3
  2-TC parameter estimate k2: 0.09 min⁻¹
  2-TC parameter estimate k3: 0.025 min⁻¹
  2-TC parameter estimate k4: 0.031 min⁻¹
NHP #3, CAU
  2-TC parameter estimate K1: 0.65 mL min-1 cm-3
  2-TC parameter estimate VT: 19.2 mL cm-3
  2-TC parameter estimate k2: 0.04 min⁻¹
  2-TC parameter estimate k3: 0.006 min⁻¹
  2-TC parameter estimate k4: 0.029 min⁻¹
NHP #3, CER
  2-TC parameter estimate K1: 0.44 mL min-1 cm-3
  2-TC parameter estimate VT: 13.9 mL cm-3
  2-TC parameter estimate k2: 0.04 min⁻¹
  2-TC parameter estimate k3: 0.005 min⁻¹
  2-TC parameter estimate k4: 0.016 min⁻¹
NHP #3, OC
  2-TC parameter estimate K1: 0.38 mL min-1 cm-3
  2-TC parameter estimate VT: 11.2 mL cm-3
  2-TC parameter estimate k2: 0.04 min⁻¹
  2-TC parameter estimate k3: 0.003 min⁻¹
  2-TC parameter estimate k4: 0.012 min⁻¹
NHP #3, PFC
  2-TC parameter estimate K1: 0.49 mL min-1 cm-3
  2-TC parameter estimate VT: 13.5 mL cm-3
  2-TC parameter estimate k2: 0.05 min⁻¹
  2-TC parameter estimate k3: 0.006 min⁻¹
  2-TC parameter estimate k4: 0.017 min⁻¹
NHP #3, PUT
  2-TC parameter estimate K1: 0.70 mL min-1 cm-3
  2-TC parameter estimate VT: 16.7 mL cm-3
  2-TC parameter estimate k2: 0.05 min⁻¹
  2-TC parameter estimate k3: 0.007 min⁻¹
  2-TC parameter estimate k4: 0.029 min⁻¹
NHP #3, THA
  2-TC parameter estimate K1: 0.58 mL min-1 cm-3
  2-TC parameter estimate VT: 18.5 mL cm-3
  2-TC parameter estimate k2: 0.04 min⁻¹
  2-TC parameter estimate k3: 0.007 min⁻¹
  2-TC parameter estimate k4: 0.023 min⁻¹
NHP #3, WB
  2-TC parameter estimate K1: 0.48 mL min-1 cm-3
  2-TC parameter estimate VT: 12.6 mL cm-3
  2-TC parameter estimate k2: 0.05 min⁻¹
  2-TC parameter estimate k3: 0.010 min⁻¹
  2-TC parameter estimate k4: 0.029 min⁻¹
NHP #4, CAU
  2-TC parameter estimate K1: 0.50 mL min-1 cm-3
  2-TC parameter estimate VT: 19.9 mL cm-3
  2-TC parameter estimate k2: 0.05 min⁻¹
  2-TC parameter estimate k3: 1.087 min⁻¹
  2-TC parameter estimate k4: 1.229 min⁻¹
NHP #4, CER
  2-TC parameter estimate K1: 0.32 mL min-1 cm-3
